Assay [1] deals with MMP9. Briefly: MMP9 expression in wound skin tissues of STZ mice (immunoblot, IHC). It is filed as in vivo, mouse. Conditions: immunoblot and IHC, day 14. An excerpt: Diabetes mouse model and treatments. Nrf2^+/+ and Nrf2^-/- C57BL/6 mice were described previously (see, e.g., Jiang T, et al., Diabetes 59:850-860, 2010) and were housed and handled in accordance with the University of Arizona Institutional Animal Care policies. The STZ-induced diabetic model was previously described (see, e.g., Zheng H, et al., Diabetes 60:3055-3066, 2011) and only 8 week old male mice were included in this study. Briefly, three weeks after STZ injections, fasting glucose levels (FGL, 4 h fast) were measured using the AlphaTRAK system (Abbott Laboratory, North Chicago, Ill.) and mice with a FGL higher than or equal to 250 mg/dL were considered diabetic and included in the study (see, e.g., FIG. 2A and FIG. 3A for a detailed timeline). […] Gross wound closure was quantified by ImageJ software, and wound healing was expressed as the percentage of the original wound area that had healed. […] Morphology was assessed by hematoxylin and eosin (H&E) staining (Vector laboratory, Burlingame, Calif.). […] Protein concentration was measured using Quant-iT Protein Assay (Invitrogen) and 150 μg of protein were resolved by SDS-PAGE and immunoblotting analyses with the indicated antibodies.
For orientation: A western blot detects proteins with antibodies after separation by electrophoresis.

Assay [2] in a line: Digital infrared thermal imaging of wounds in STZ mice. In kind it is in vivo, mouse. To be noted: exaggerated gradient vs Con group.
Protocol: Diabetes mouse model and treatments. […] Briefly, three weeks after STZ injections, fasting glucose levels (FGL, 4 h fast) were measured using the AlphaTRAK system (Abbott Laboratory, North Chicago, Ill.) and mice with a FGL higher than or equal to 250 mg/dL were considered diabetic and included in the study (see, e.g., FIG. 2A and FIG. 3A for a detailed timeline). The mice (n=5-8) were then allocated randomly to each of the indicated treatment groups and received corn oil (control), 12.5 mg/kg SF or 50 mg/kg CA intraperitoneally every two days until skin tissues were harvested. One week after the treatments, the mice were anesthetized, their backs were shaved and cleaned. Two wounds were made with a sterile 6 mm skin biopsy punch (Health link, Jacksonville, Fla.) and covered with 3M Tegaderm pads. The wounds were photographed using an in vivo imaging system and an infrared integrated system (IRISYS, Northampton, UK) for 14 days. Gross wound closure was quantified by ImageJ software, and wound healing was expressed as the percentage of the original wound area that had healed. The tissues were collected using an 8 mm skin biopsy punch; one half was fixed in 10% buffered formalin and embedded in paraffin while the other half was used for protein extraction. […]
Assay [3] deals with MMP9. As to the kind of experiment: MMP9 immunoblot and gelatin zymography in HaCaT cells under high glucose. In kind it is cell-based, human. Conditions: HG HaCaT cells, 5 μmol/L SF or 20 μmol/L CA. Here is the method: (§1) Human immortalized keratinocytes HaCaT were obtained from the Arizona Cancer Center (see, e.g., Boukamp P, et al., J Cell Biol 106:761-771, 1988). Cells were grown in Dulbecco's modified Eagle's medium (DMEM) containing low glucose (LG, 5.5 mmol/L) and 10% fetal bovine serum (FBS) in an incubator at 37° C. with 5% CO2. For the experiments, the cells were starved in serum-free LG DMEM for 24 h, then either maintained in LG DMEM or switched to high glucose (HG, 25 mmol/L) DMEM for 2 days (see, e.g., Zheng H, et al., Diabetes 60:3055-3066, 2011; Lan C C, et al., Br J Dermatol 159:1103-1115, 2008). For the treatments, the cells were dosed with 5 μmol/L SF or 20 μmol/L CA.
siRNA transfections. […]
Cultured HaCaT cells were harvested in 1× sample buffer (50 mM Tris-HCl pH 6.8, 2% sodium dodecyl sulfate (SDS), 10% glycerol, 100 mM dithiothreitol (DTT), 0.1% bromophenol blue), boiled and sonicated. […] TGF-β1 was measured using the Quantikine human TGF-β1 immunoassay kit (R&D systems; Minneapolis, Minn.) according to the manufacturer's instructions. The absorbance at 450 nm was measured using a Synergy 2 microplate reader (BioTek, Winooski, Vt.) and the amount of TGF-β1 was calculated by standard curve. MMP9 activity was evaluated by gelatin zymography as described elsewhere (see, e.g., Toth M, et al., Methods Mol Biol 878:121-135, 2012; Zhu P, et al., Exp Dermatol 21:123-129, 2012). […]

The next assay has as its system HaCaT cells. As to the kind of experiment: In vitro wounding assay (PDMS barrier) of keratinocyte migration. Conditions: HG HaCaT cells; 5 μmol/L SF or 20 μmol/L CA; up to 72 h. In kind it is cell-based, human. The method, then: as §1
siRNA transfections. HaCaT cells were transfected with either a non-specific, control small interfering RNA (Con-siRNA, #1027281, Qiagen, Valencia, Calif.) or an NRF2-specific siRNA (#S100657937) using the HiPerfect transfection reagent (Qiagen) according to the manufacturer's instructions. Briefly, cells were maintained in LG or HG DMEM for 2 days and then transfected with either control or NRF2 siRNA for migration, proliferation, and apoptosis experiments. For the ROS detection, cells were maintained in LG DMEM and transfected with either control or NRF2 siRNA; 24 h later, the cells were switched to HG DMEM and treated as indicated.
In vitro wounding assay. […]

Molecules are shown by their SMILES.

As to `O=CC=Cc1ccccc1` [CA, Cinnamaldehyde], in the assay with MMP9 [1], the MMP9 protein expression entry is “restored the protein expression of MMP9 to levels comparable to the Con mice”. The “temperature gradients (ΔT) between wound area and surrounding healthy tissue” value in assay [2] was “abolished this effect”. The “expression and activity of MMP9” value in the assay with MMP9 [3] is on record as “decreased”. In the assay with HaCaT cells, the “in vitro wound closure (cell migration)” value was “significantly accelerated wound closure in HG cells”.
For the molecule `C[S@@+]([O-])CCCCN=C=S` [SF, L-sulforaphane], in the assay with MMP9 [1], the MMP9 protein expression result is “restored the protein expression of MMP9 to levels comparable to the Con mice”. For the same molecule, the “temperature gradients (ΔT) between wound area and surrounding healthy tissue” value in assay [2] was “abolished this effect”. In the assay with MMP9 [3], the “expression and activity of MMP9” value was “decreased”. Besides, the “in vitro wound closure (cell migration)” value in the assay on HaCaT cells is on record as “significantly accelerated wound closure in HG cells”.

For the origin of these results see patent US20180344680A1, “COMPOSITIONS AND METHODS FOR TREATMENT, AMELIORATION, AND PREVENTION OF DIABETES-RELATED SKIN ULCERS” (THE ARIZONA BOARD OF REGENTS ON BEHALF OF THE UNIVERSITY OF …, priority 2015, published 2018).
